# Test results from BindingDB's records for doi:10.1021/acs.biochem.6b00733 (Utrecht University, 2016).
# Target: T1, Nicotinamide N-methyltransferase (Homo sapiens, UniProt P40261)
# T1 sequence (P40261 whole entry): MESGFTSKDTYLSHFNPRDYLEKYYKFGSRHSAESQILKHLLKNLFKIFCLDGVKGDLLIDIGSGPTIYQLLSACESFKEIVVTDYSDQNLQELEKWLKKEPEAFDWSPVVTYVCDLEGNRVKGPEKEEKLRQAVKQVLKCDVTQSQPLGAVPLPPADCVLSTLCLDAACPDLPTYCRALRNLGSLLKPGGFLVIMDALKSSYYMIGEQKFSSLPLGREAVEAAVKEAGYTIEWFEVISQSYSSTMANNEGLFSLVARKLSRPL
# Assay: NNMT Enzymatic Activity Assay
# Conditions: pH 8.6; 37 °C
# Method: Enzyme activity assays were performed as previously described with NNMT (16.25 ug/mL, 550 nM) in 50 mM Tris buffer (pH 8.6) containing 1 mM DTT (all final concentrations). The enzyme was incubated with the substrate pyridine compound for 5 min at 37 °C using a heat block before the reaction was initiated by addition of AdoMet (for substrates that were not soluble in water, stocksolutions were prepared in DMSO and diluted to a final DMSO concentration of <5% in the assay mixture). […] For these screens, the final reagent concentrations were 100 uM AdoMet and 2.0 mM substrate and a series of time points were initially investigated (5, 15, 30, and 60 min). At each time point, 15 uL aliquots of the reaction mixture were taken and added to 70 uL of acetonitrile, which served to quench the reaction by causing precipitation of the enzyme.
row,Ki,Structure (SMILES)
1,9.7 mM,NC(=O)c1cnc2ccccc2c1 [quinoline 3-carboxamide]
2,6.6 mM,NC(=S)c1cccnc1 [thionicotinamide]

row,Structure (SMILES),Ki
1,"c1ccc2c(c1)CCNC2 [1,2,3,4-tetrahydroisoquinoline]",4.7 mM
